Source: article PMC7026418, “The kinase polypharmacology landscape of clinical PARP inhibitors” (Scientific Reports, 2020)
Like-named read-outs stand apart in the source and are kept apart here. Blank lines part the entries; values can stand above or below the compound they belong to.

Experiments:
Test in all cases: biochemical
Design in all cases: DiscoveRx KINOMEscan active site-directed competition binding; percent of control kinase bound to immobilised ligand
SNRK = target: T1, SNRK (Homo sapiens, UniProt Q9NRH2)
T1 sequence (Q9NRH2 1-765): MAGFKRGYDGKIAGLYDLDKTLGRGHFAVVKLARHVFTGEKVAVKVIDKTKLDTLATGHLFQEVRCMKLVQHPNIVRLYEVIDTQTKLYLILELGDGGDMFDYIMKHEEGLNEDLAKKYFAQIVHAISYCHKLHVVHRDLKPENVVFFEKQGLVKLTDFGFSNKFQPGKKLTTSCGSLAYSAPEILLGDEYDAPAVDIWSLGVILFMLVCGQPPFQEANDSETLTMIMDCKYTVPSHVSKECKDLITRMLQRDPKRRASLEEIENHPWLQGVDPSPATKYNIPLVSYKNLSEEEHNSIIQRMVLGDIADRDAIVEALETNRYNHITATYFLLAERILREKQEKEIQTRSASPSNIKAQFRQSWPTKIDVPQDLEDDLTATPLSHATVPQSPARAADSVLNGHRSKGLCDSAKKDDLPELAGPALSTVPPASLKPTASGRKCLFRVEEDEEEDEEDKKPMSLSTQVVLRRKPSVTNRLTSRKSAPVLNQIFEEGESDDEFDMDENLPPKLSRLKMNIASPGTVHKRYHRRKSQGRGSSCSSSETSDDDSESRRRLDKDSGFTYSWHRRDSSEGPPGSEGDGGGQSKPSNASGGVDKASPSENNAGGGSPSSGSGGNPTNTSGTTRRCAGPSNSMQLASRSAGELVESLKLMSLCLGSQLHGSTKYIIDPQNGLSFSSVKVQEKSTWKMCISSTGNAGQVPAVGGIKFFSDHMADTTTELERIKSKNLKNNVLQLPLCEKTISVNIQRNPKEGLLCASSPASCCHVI

PKAC-alpha = target: T2, PKAC-alpha (Homo sapiens, UniProt P17612)
T2 construct: gene PRKACA

PHKG2 = target: T3, PHKG2 (Homo sapiens, UniProt P15735)
T3 sequence (P15735 1-406): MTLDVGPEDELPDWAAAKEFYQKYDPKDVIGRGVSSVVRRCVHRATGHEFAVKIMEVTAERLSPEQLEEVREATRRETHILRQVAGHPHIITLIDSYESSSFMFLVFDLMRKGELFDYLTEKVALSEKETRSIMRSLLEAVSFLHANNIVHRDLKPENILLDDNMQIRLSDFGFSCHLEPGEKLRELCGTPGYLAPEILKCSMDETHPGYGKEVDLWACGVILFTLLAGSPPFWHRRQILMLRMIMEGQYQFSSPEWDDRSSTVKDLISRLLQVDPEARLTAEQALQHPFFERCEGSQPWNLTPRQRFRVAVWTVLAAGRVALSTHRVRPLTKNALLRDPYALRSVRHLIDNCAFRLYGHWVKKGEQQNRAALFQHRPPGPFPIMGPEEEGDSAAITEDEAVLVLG

TLK1 = target: T4, TLK1 (Homo sapiens, UniProt Q9UKI8)
T4 sequence (Q9UKI8 1-766): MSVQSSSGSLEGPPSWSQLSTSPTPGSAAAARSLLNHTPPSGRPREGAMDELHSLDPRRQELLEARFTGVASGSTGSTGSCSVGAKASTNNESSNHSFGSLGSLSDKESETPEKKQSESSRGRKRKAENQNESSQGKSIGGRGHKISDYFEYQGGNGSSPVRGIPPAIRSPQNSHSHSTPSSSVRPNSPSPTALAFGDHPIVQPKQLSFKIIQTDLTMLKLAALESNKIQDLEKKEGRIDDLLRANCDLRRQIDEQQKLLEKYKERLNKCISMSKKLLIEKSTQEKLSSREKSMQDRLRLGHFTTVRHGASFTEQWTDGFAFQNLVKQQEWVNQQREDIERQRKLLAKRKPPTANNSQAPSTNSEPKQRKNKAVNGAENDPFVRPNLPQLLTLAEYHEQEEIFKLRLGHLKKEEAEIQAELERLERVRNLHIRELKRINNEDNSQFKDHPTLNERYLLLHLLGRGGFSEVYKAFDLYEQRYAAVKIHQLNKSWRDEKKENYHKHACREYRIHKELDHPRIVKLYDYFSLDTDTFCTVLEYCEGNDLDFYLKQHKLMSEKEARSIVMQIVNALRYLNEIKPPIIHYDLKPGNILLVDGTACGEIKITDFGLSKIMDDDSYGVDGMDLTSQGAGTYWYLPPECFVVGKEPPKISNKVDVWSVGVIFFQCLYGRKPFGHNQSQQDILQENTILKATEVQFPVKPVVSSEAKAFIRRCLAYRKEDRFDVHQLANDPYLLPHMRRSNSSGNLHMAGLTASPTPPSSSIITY

MST1R = MST1R (Homo sapiens, UniProt Q04912)
MLK2 = target: T5, MLK2 (Homo sapiens, UniProt Q02779)
T5 construct: gene MAP3K10

[1] = target: T6, ABL1(F317L)-nonphosphorylated (Homo sapiens, UniProt P00519, F317L)
T6 construct: nonphosphorylated

[2] = read-out: Niraparib (MK-4827) / %Ctrl @ 10000nM
[3] = read-out: Olaparib / %Ctrl @ 10000nM
[4] = read-out: Rucaparib / %Ctrl @ 10000nM, binding competition, % of control
[5] = read-out: Talazoparib (BMN 673) / %Ctrl @ 10000nM

T5 sequence (Q02779 whole entry): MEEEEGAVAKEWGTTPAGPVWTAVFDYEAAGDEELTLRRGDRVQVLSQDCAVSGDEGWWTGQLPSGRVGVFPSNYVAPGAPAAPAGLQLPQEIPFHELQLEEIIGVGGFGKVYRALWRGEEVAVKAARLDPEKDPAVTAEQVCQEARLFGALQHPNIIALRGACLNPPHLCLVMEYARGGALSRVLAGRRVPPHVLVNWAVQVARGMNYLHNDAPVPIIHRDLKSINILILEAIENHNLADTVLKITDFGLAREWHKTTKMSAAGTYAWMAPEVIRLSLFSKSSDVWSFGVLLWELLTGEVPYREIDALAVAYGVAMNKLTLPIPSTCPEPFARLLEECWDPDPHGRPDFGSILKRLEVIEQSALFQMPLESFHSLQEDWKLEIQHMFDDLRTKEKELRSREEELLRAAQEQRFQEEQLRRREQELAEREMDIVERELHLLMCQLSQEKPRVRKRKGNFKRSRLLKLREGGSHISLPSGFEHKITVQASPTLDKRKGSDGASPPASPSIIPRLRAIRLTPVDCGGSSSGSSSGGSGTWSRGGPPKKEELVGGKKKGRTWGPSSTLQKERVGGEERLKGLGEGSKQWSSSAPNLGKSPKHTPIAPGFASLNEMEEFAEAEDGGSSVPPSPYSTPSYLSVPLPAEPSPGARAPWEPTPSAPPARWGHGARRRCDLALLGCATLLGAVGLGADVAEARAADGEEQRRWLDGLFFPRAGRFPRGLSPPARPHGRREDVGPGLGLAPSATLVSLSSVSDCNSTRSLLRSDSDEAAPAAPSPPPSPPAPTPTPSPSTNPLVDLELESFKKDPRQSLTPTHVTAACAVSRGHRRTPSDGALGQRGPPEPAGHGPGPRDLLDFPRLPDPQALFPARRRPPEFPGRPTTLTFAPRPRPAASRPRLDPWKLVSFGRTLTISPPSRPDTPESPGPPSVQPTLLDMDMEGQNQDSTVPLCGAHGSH
T6 sequence (P00519 whole entry F317L): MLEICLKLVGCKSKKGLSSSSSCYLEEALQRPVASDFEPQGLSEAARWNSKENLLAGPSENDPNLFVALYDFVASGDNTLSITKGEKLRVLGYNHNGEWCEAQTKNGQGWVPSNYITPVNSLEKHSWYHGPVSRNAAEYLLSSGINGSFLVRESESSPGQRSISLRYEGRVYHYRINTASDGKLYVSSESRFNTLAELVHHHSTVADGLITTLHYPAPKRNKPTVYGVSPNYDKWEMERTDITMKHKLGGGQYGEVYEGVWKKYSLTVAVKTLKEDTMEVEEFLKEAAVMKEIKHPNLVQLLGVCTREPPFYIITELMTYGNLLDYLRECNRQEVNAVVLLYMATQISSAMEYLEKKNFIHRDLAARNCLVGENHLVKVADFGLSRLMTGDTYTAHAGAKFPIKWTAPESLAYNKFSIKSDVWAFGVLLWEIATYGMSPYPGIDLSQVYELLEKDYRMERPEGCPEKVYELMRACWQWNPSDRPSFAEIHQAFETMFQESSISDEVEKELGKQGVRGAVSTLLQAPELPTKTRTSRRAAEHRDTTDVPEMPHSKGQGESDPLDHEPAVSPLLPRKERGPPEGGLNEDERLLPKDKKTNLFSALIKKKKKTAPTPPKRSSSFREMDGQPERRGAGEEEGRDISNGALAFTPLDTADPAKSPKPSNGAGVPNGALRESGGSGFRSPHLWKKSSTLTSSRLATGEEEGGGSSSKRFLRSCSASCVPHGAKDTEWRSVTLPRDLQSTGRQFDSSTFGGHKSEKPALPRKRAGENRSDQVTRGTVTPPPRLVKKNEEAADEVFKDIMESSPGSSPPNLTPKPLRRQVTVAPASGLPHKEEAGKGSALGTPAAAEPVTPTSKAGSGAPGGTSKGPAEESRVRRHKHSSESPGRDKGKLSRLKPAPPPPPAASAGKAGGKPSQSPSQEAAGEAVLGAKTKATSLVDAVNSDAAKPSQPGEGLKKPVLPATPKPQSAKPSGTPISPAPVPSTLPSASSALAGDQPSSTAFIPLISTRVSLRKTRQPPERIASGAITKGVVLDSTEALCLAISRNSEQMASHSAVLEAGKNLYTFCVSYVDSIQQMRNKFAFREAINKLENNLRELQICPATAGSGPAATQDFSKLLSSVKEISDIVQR
Sequence of MST1R (Q04912 whole entry): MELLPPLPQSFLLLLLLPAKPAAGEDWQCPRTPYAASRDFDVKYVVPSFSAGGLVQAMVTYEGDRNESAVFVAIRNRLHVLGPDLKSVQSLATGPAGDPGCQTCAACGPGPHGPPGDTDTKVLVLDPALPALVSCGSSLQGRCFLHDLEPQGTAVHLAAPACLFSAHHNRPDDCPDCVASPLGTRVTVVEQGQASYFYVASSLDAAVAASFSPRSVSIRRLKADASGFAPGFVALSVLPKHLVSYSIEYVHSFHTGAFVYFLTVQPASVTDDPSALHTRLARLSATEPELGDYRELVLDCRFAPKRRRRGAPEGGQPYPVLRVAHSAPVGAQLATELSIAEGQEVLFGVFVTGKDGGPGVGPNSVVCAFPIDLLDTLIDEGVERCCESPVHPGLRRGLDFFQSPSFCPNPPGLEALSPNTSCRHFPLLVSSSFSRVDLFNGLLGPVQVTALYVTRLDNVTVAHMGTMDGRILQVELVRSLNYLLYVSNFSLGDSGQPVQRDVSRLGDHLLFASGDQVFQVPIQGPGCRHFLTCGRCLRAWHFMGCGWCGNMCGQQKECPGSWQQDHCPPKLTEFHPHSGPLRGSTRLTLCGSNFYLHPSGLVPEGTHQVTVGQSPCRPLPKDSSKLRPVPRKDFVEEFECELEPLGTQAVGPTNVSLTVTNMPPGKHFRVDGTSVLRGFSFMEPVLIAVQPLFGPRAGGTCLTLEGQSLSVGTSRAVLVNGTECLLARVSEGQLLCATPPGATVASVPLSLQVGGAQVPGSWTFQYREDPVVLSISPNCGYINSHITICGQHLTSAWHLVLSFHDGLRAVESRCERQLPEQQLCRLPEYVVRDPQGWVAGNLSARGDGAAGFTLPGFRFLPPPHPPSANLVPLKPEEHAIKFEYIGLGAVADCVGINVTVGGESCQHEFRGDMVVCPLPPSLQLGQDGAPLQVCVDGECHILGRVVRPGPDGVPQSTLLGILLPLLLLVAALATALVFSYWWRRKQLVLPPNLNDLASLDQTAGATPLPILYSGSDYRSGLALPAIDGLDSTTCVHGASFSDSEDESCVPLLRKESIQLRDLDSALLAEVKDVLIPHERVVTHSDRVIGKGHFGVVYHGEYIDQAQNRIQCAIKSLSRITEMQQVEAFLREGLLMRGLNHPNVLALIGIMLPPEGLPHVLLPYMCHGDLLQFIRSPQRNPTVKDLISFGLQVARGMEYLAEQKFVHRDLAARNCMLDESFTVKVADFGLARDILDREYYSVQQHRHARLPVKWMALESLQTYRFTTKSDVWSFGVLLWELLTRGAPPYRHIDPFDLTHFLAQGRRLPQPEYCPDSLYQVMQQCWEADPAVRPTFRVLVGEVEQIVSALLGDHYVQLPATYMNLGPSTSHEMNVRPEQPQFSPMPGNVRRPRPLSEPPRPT

SMILES: NC(=O)c1cccc2cn(-c3ccc([C@@H]4CCCNC4)cc3)nc12 [Niraparib]
percent of control binding at 10 µM (SNRK; [2]): 100% | percent of control binding at 10 µM (PKAC-alpha; [2]): 86% | percent of control binding at 10 µM (PHKG2; [2]): 87% | percent of control binding at 10 µM (TLK1; [2]): 85% | percent of control binding at 10 µM (MST1R; [2]): 88% | percent of control binding at 10 µM (MLK2; [2]): 69% | percent of control binding at 10 µM [1, 2]: 96%

percent of control binding at 10 µM (SNRK; [3]): 96% | percent of control binding at 10 µM (PKAC-alpha; [3]): 100% | percent of control binding at 10 µM (PHKG2; [3]): 100% | percent of control binding at 10 µM (TLK1; [3]): 94% | percent of control binding at 10 µM (MST1R; [3]): 84% | percent of control binding at 10 µM (MLK2; [3]): 97% | percent of control binding at 10 µM [1, 3]: 81%
SMILES: O=C(c1cc(Cc2n[nH]c(=O)c3ccccc23)ccc1F)N1CCN(C(=O)C2CC2)CC1 [Olaparib]

percent of control binding at 10 µM (SNRK; [4]): 80% | percent of control binding at 10 µM (PKAC-alpha; [4]): 100% | percent of control binding at 10 µM (PHKG2; [4]): 70% | percent of control binding at 10 µM (TLK1; [4]): 94% | percent of control binding at 10 µM (MST1R; [4]): 91% | percent of control binding at 10 µM (MLK2; [4]): 63% | percent of control binding at 10 µM [1, 4]: 69%
SMILES: CNCc1ccc(-c2[nH]c3cc(F)cc4c3c2CCNC4=O)cc1 [Rucaparib]

percent of control binding at 10 µM (SNRK; [5]): 100% | percent of control binding at 10 µM (PKAC-alpha; [5]): 88% | percent of control binding at 10 µM (PHKG2; [5]): 97% | percent of control binding at 10 µM (TLK1; [5]): 99% | percent of control binding at 10 µM (MST1R; [5]): 99% | percent of control binding at 10 µM (MLK2; [5]): 70% | percent of control binding at 10 µM [1, 5]: 58%
SMILES: Cn1ncnc1[C@H]1c2n[nH]c(=O)c3cc(F)cc(c23)N[C@@H]1c1ccc(F)cc1 [Talazoparib]
